Source: patent publication US20230192646A1, “DIHYDRO-CYCLOPENTA-ISOQUINOLINE DERIVATIVES” (UCB Biopharma SRL, priority 2019, published 2023)

Molecular target: T1, IgE-Tb / FcεR1α-Y131A-AF488 (soluble IgE receptor FcεR1α with a Y131A mutation) (Homo sapiens, UniProt P0DOX4, C225A/N265Q/N371Q)
T1 construct: 86 nmoles of IgE-Fc(N265Q, N371Q) (Young et al., 1995)
Assay: In vitro FRET assay of IgE-Tb binding to FcεR1α-Y131A-AF488, 2 hours incubation (examples 16 and 89)
Details: 5 nM IgE-Tb, 25 nM FcεR1α-Y131A-AF488; 2 hours at room temperature; read-out: FRET IC50 range
Method: 86 nmoles of IgE-Fc(N265Q, N371Q) (Young et al., 1995) at 172 μM in 100 mM NaHCO3, pH 9.5 was added to 1 mg of LanthaScreen™ Amine Reactive Tb Chelate (ThermoFisher catalogue number PV3583) and incubated for 16 hours at 20° C. The material was then buffer exchanged into Phosphate Buffered Saline (being, 137 mM NaCl, 2.7 mM KCl, 10 mM Na2HPO4, 1.8 mM K2HPO4, pH 7.4) and the material quantified and the degree of Tb conjugation determined by measuring the absorption at 280 nm and 343 nm.
400 nmoles FcεR1α (Y131A mutant) (Cook et al., 1997) at 400 μM in 100 mM NaOAc pH 5.5 was reacted with 1 mM final concentration sodium periodate (in 100 mM NaOAc, pH 5.5) for 60 minutes at 22° C. […]
175 nmoles of protein was added to 1 mg of Alexa Fluor™ 488 hydrazide (Invitrogen) and incubated for 16 hours at 22° C. […] The protein was buffer exchanged into Phosphate Buffered Saline (being, 137 mM NaCl, 2.7 mM KCl, 10 mM Na2HPO4, 1.8 mM K2HPO4, pH 7.4) and the material quantified and the degree of Alexa Fluor™ 488 conjugation determined by measuring the absorption at 280 nm and 495 nm.
The aim was to measure binding of IgE-Tb to receptor, and the inhibition thereof by compounds, using an in vitro Fluorescence Resonance Energy Transfer (FRET) Assay. […]
Measurement of FRET for each well was carried out by exciting at 330 nm and measuring emission at 495/520 nm using an Envision plate reader (Perkin Elmer). […]

T1 sequence (P0DOX4 224-547 C225A/N265Q/N371Q): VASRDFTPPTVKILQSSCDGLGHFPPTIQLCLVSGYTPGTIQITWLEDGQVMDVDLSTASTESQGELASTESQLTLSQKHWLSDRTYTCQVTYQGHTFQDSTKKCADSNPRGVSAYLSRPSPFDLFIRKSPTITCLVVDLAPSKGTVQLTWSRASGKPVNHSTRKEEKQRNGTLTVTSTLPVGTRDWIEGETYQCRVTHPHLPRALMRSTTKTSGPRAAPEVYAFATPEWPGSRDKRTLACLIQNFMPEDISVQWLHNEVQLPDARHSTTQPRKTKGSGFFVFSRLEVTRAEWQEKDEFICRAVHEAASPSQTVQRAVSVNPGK

CCNC(=O)N[C@H]1C[C@H](O)c2cc(S(=O)(=O)NCC(C)C)c3cc(C4CC4)ncc3c21 (racemic) [Example 16, 1-ethyl-3-[trans-(7RS,9RS)-3-cyclopropyl-7-hydroxy-5-(2-methylpropylsulfamoyl)-8,9-dihydro-7H-cyclopenta[h]isoquinolin-9-yl]urea]
IC50: 100 to 2000 nM

CC(C)(F)CNS(=O)(=O)c1cc2c(c3cnc(C4CC4)cc13)C(N)CC2NC(=O)c1cccnc1 (centres unmarked) [Example 89, N-[9-amino-3-cyclopropyl-5-[(2-fluoro-2-methylpropyl)sulfamoyl]-8,9-dihydro-7H-cyclopenta[h]isoquinolin-7-yl]pyridine-3-carboxamide]
IC50: 100 to 2000 nM
